The source made the active and inactive calls.
Experiments:
[1] = MC4R antagonists, dose response, counter-screen for LGR2 antagonist project, cell-based, plate reader, cherry pick (AID 743444); format: functional;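 also: transfected HEK 293 cells stimulated with alpha-MSH peptide; potency of inhibitors of the alpha-MSH evoked signal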
[2] = HepG2 cell cytotoxicity, dose response, cytotoxicity control, plate reader, cherry-pick, antagonist series (AID 743416); format: functional, cell-based
[3] = LGR2 antagonists, dose response, cell-based, HEK293, CRE-luciferase reporter, cherry pick, set 2 (AID 743343); format: functional;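 also: transfected cells were stimulated with diluted bursicon conditioned medium after compound addition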
[4] = target: Photoreceptor-specific nuclear receptor (Homo sapiens, UniProt Q9Y5X4); format: functional, cell-based;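 also: CHO-S cells with Gal4-NCOR and VP16-NR2E3 two-hybrid luciferase reporter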
Photoreceptor-specific nuclear receptor, sequence (Q9Y5X4 whole entry, the tested form may be a part): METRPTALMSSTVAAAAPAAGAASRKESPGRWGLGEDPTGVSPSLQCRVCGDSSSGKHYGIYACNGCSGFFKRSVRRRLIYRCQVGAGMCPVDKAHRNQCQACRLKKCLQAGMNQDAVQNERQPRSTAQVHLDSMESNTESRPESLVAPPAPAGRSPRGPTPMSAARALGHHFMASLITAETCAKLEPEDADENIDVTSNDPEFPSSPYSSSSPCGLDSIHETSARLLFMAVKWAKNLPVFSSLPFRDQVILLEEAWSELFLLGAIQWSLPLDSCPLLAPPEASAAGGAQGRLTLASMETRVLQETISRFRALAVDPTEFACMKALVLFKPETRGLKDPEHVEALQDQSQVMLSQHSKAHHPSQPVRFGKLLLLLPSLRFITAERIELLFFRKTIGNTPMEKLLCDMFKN

[5] = target: T1, Galanin receptor type 3 (Homo sapiens, UniProt O60755); assay: Fluorescence-based cell-based primary high throughput dose response assay to identify antagonists of the Galanin Receptor 3 (GalR3).; format: functional
T1 sequence (O60755 whole entry): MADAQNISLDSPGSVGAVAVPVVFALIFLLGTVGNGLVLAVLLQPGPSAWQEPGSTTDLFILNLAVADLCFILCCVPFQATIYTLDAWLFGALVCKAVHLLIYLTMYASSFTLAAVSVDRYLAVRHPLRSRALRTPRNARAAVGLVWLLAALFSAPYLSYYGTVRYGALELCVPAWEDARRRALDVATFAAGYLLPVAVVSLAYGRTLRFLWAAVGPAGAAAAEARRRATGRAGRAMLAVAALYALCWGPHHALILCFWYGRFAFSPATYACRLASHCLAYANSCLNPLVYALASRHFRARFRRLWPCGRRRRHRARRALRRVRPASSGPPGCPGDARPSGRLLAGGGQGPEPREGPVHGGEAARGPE

[6] = cells; format: functional, cell-based; details: HEK-CNG
[7] = system: INS1; assay: beta cell apoptosis inhibitors, cytokine rescue, dose response, luminescence, retest (AID 449756); format: functional, cell-based; details: Rattus norvegicus;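 also: cell death triggered by IL-1 beta plus TNF-alpha plus IFN-gamma mixture; protective hits raise ATP signal compared with cytokine alone wells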
[8] = Luminescence Cell-Based Dose Response to Identify Activators of Luciferase Translation or Activity in H4-C Neuroglioblastoma Cells. [Related pubchem assays: 1829 (Project Summary), 1814 (Primary HTS)]; format: functional
[9] = Luminescence Cell-Based Dose Confirmation to Identify Activators of 5'UTR Stem-Loop Driven Alpha-Synuclein mRNA Translation in H4 Neuroglioblastoma Cells. [Related pubchem assays: 1829 (Project Summary), 1814 (Primary HTS)]; format: functional
[10] = system: H4; assay: Luminescence Cell-Based Dose Response HTS to Identify Activators of 5'UTR Stem-Loop Driven Prion Protein mRNA Translation in H4 Neuroglioblastoma Cells. [Related pubchem assays: 1829 (Project Summary), 1814 (Primary HTS)]; format: functional; details: Homo sapiens
[11] = Luminescence Cell-Based Dose Response HTS to Identify Activators of Luciferase Translation or Activity in H4 […] Cells. [Related pubchem assays: 1829 (Project Summary), 1814 (Primary HTS)]; format: functional
[12] = Luminescence Cell-Based Dose Response to Identify Activators of 5'UTR Stem-Loop Driven Prion Protein mRNA Translation in H4-C Neuroglioblastoma Cells. [Related pubchem assays: 1829 (Project Summary), 1814 (Primary HTS)]; format: functional
[13] = target: T2, Microphthalmia-associated transcription factor (Homo sapiens, UniProt O75030); assay: TRPM1 promoter luciferase signal decrease, dose response, MITF inhibitor project, cell-based, SK-MEL-5, cherry-picked, set 3 (AID 493073); format: functional
T2 sequence (O75030 whole entry): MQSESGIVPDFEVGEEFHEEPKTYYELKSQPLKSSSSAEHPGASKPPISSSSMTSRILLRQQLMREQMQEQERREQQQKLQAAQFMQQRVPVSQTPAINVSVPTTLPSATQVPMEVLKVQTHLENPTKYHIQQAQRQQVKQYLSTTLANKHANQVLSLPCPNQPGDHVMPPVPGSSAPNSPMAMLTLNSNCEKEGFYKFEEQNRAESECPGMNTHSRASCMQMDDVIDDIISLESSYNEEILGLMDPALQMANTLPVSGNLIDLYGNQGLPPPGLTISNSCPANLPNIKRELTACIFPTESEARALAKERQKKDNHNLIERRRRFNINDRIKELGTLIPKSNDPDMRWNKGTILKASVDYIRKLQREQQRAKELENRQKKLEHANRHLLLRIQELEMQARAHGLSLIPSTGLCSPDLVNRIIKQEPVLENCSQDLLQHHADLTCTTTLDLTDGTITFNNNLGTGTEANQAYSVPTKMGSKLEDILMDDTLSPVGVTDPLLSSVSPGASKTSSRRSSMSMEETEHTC

[14] = system: A-375; assay: MITF: Counter assay: A375 proliferation Measured in Cell-Based System Using Plate Reader - 2084-03_Inhibitor_Dose_DryPowder_Activity. [Related pubchem assays (depositor defined):AID488944]; format: functional; details: Homo sapiens
[15] = A549 cell cytotoxicity, dose response, cytotoxicity control, plate reader, cherry-pick, antagonist series (AID 743412); format: functional, cell-based
[16] = target: Prothrombin (Homo sapiens, UniProt P00734); assay: Thrombin 1536 HTS Dose Response Confirmation. [Related pubchem assays: 1046 (Thrombin 1536 HTS; hits were confirmed in this assay)]; format: functional
[17] = system: HEK293; assay: inhibitors of LMP1-driven NF-kB reporter, dose response, cell-based, HEK293, luciferase, cherry-pick (AID 588343); format: functional; details: Homo sapiens
[18] = target: T3, Heat shock factor protein 1 (Mus musculus, UniProt P38532); assay: inhibition of MG132-induced HSE-luciferase signal, confirmation, cell-based, NIH3T3, luminescence, dose retest (AID 2382); format: functional;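 also: NIH3T3 fibroblasts with HSF1-driven luciferase reporter stressed by proteasome inhibitor MG132; luminescence from HSF1-driven luciferase expression after 8 hours of MG132 stress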
T3 sequence (P38532 whole entry): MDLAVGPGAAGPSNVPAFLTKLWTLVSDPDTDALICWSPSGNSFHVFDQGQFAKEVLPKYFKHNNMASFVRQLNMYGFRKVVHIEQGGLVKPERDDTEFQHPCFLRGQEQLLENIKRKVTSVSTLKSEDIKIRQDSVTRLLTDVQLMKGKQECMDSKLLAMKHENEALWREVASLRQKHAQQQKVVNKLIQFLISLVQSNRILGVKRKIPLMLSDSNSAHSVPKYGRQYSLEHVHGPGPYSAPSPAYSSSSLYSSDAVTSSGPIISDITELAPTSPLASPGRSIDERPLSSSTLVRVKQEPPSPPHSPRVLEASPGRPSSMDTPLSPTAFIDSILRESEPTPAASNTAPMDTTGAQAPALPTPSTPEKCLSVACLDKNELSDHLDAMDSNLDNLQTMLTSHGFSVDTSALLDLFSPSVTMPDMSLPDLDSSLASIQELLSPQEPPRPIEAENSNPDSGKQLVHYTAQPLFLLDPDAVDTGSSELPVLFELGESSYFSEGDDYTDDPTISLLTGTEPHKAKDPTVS

[19] = system: Vero; assay: cells; format: functional; details: Chlorocebus sabaeus
[20] = Luminescence Cell-Based Dose Retest to Confirm Inhibitors of Cancer Stem Cells. [Related pubchem assays (depositor defined):AID2717, AID2721]; format: functional; details: Homo sapiens
[21] = Shn3 3'UTR reporter inhibitors, dose response, cell-based, Clone20 osteoblasts, firefly luciferase, cherry-picked (AID 624132); format: functional;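 also: firefly luciferase luminescence from reporter carrying the Shn3 3'UTR in osteoblasts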
[22] = target: Nonstructural protein 1 (Influenza A virus, UniProt Q194T2); format: functional, Influenza A virus (A/California/07/2009(H1N1))
Nonstructural protein 1, sequence (Q194T2 whole entry): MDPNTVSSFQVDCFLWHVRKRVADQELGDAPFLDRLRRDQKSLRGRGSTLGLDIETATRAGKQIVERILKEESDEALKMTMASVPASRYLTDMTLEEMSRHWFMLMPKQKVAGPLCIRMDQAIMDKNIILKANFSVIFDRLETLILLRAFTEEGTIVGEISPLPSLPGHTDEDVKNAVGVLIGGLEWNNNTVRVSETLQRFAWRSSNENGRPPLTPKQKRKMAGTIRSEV

[23] = control 3'UTR Renilla luciferase suppression, dose response, counter-screen for Shn3 inhibitor project, cell-based, Clone20-Shn3RL, cherry-picked (AID 624133); format: functional
[24] = HepG2 cell cytotoxicity, dose response, cytotoxicity control for Shn3 inhibitor project, CellTiter-Glo, cherry-picked (AID 624134); format: functional, cell-based
[25] = P. falciparum ATP4 D1247Y mutant growth inhibitors, dose response, NITD609-resistant line, SYBR Green, dry powder (AID 1159571); format: functional, cell-based;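 also: parasites synchronized at ring stage by sorbitol before testing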
[26] = P. falciparum Dd2 growth inhibitors, dose response, SYBR Green, cherry-picked samples (AID 1159567); format: functional, cell-based
[27] = P. falciparum 3D7-ScDHODH growth inhibitors, dose response, SYBR Green, dry powder samples (AID 1159570); format: functional, cell-based;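 also: parasite growth measured after 72 hours of compound exposure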
[28] = P. falciparum Dd2 growth inhibitors, dose response, SYBR Green, dry powder samples (AID 1159566); format: functional, cell-based;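 also: potency for growth inhibition with lower SYBR green DNA signal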
[29] = HepG2 cell cytotoxicity, dose response, cytotoxicity control, plate reader, dry powder samples (AID 1159569); format: functional, cell-based;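 also: inhibitor potency with signal falling toward the positive control level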
[30] = P. falciparum Dd2 growth inhibitors, dose response, SYBR Green, dry powder samples, set 9 (AID 1159568); format: functional, cell-based

## O=C(O)c1cccc(-c2noc(-c3cccc(Cl)c3)n2)c1
[1]
  AC50: 7.56 µM (active)
[2]
  AC50: > 52 µM (inactive)
[3]
  AC50: 5.67 µM (active)

## CCCOc1ccc(CSc2nc3ccccc3[nH]2)cc1
[4]
  IC50: 4.25 µM (active)
[5]
  IC50: 2.27 µM (active)
[6]
  EC50: > 29.9 µM (inactive)
[7]
  AC50: 3.73 µM (active)

## C=CCC1(CC=C)CCCN1C(=O)c1cc(COc2cncc(Cl)c2)on1
[5]
  IC50: > 1.11 µM (active)
[6]
  EC50: > 29.9 µM (inactive)

## COCC1CCCN(C(=O)c2cc(COc3ccc4ncccc4c3)on2)C1 (centres undefined)
[5]
  IC50: 1.3 µM (active)
[6]
  EC50: > 29.9 µM (inactive)

## CC(=O)c1c(C)[nH]c(C(=O)NCCC2=CCCCC2)c1C
[8]
  EC50: > 12 µM (not active)
[9]
  EC50: 0.468 µM (active)
[10]
  EC50: 12.3 µM (active)
[11]
  EC50: < 0.1 µM (inconclusive)
[12]
  EC50: 0.862 µM (active)

## COC(=O)c1ccc(Nc2cc(C)nc3ccc(C)cc23)cc1
[13]
  AC50: 6.85 µM (active)
[14]
  AC50: 36.8 µM (active)
[2]
  AC50: 13.2 µM (active)
[15]
  AC50: 4.31 µM (active)

## CC(Sc1nncn1C)C(=O)NCc1ccc2c(c1)OCO2 (centres undefined)
[16]
  IC50: > 50 µM (not active)

## CC(C)(C)c1ccc(Cn2c(=O)cnc3ccccc32)cc1
[17]
  AC50: 6.93 µM (active)
[2]
  AC50: 29.4 µM (active)
[15]
  AC50: 12.6 µM (active)
[18]
  EC50: 2.27 µM (active)
[3]
  AC50: 38 µM (active)

## CCc1cc(OCCCSc2nc(C)cc(O)n2)ccc1Cl
[19]
  CC50: 2.36 µM (active)
[4]
  IC50: 3.02 µM (active)

## Cc1csc(NC(=O)c2cnc3ccccc3n2)n1
[1]
  AC50: 16.9 µM (active)
[2]
  AC50: > 52 µM (inactive)
[3]
  AC50: 7.51 µM (active)

## Cc1c(N(C)C(=O)C2CCCN2S(=O)(=O)c2ccccc2)c(=O)n(-c2ccccc2)n1C (centres undefined)
[16]
  IC50: > 50 µM (not active)

## Cc1nn(Cc2ccc(C(=O)Nc3nccs3)cc2)c(C)c1Cl
[16]
  IC50: > 50 µM (not active)
[20]
  AC50: 0.747 µM (active)

## Nc1cccc2c1C(=O)N(C(=O)c1ccco1)C2=O
[16]
  IC50: 8.62 µM (active)

## CSc1ccc(C(=O)C2CCCN(C(=O)CCc3c(C)nn(C)c3C)C2)cc1 (centres undefined)
[5]
  IC50: 1.15 µM (active)
[6]
  EC50: > 29.9 µM (inactive)

## CC1=C(C#N)C(=O)N(C)C(=O)/C1=N/Nc1ccc(S(N)(=O)=O)cc1
[16]
  IC50: > 50 µM (not active)

## FC(F)(F)c1ccccc1Cc1c(-c2ccco2)nc2c3ccccc3ccn12
[5]
  IC50: 13 µM (inactive)
[6]
  EC50: > 29.9 µM (inactive)

## Clc1cc2cccnc2c2ncccc12
[4]
  IC50: 5.53 µM (active)
[21]
  AC50: 4.06 µM (active)
[22]
  IC50: 3.44 µM (active)
[7]
  AC50: 6.84 µM (active)
[23]
  AC50: 3.94 µM (active)
[20]
  AC50: 4.73 µM (active)
[24]
  AC50: 5.34 µM (active)

## CO[C@@H]1CN(C)C(=O)c2ccc(NC(=O)c3nc4ccccc4s3)cc2OC[C@@H](C)N(Cc2ccccc2)C[C@H]1C
[25]
  AC50: 1.08 µM (active)
[26]
  AC50: 1.12 µM (active)
[27]
  AC50: 1.75 µM (active)
[28]
  AC50: 0.829 µM (active)
[29]
  AC50: > 100 µM (inactive)

## COc1ccc(S(=O)(=O)N2CCC3(CC2)CN(Cc2ccncc2)[C@H](CO)c2[nH]c4cc(OC)ccc4c23)cc1
[25]
  AC50: 2.22 µM (active)
[26]
  AC50: 1.89 µM (active)
[27]
  AC50: 2.14 µM (active)
[28]
  AC50: 1.72 µM (active)
[29]
  AC50: 28.5 µM (active)

## O=C(Cc1ccccc1)N1CC(=O)N2[C@H](CO)[C@H](c3ccc(C#CCc4ccccc4)cc3)[C@H]2C1
[25]
  AC50: 1.18 µM (active)
[30]
  AC50: 0.354 µM (active)
[26]
  AC50: 0.918 µM (active)
[27]
  AC50: 1.73 µM (active)
[28]
  AC50: 0.358 µM (active)
[29]
  AC50: 22.5 µM (active)

## O=C(Nc1cccc(F)c1)N1CCCCN2[C@H](CO)[C@H](c3ccc(C#Cc4ccccc4)cc3)[C@@H]2C1
[25]
  AC50: 0.0557 µM (active)
[26]
  AC50: < 0.3 µM (active)
[27]
  AC50: 0.0383 µM (active)
[28]
  AC50: 0.0437 µM (active)
[29]
  AC50: > 100 µM (inactive)

## CCCC#Cc1ccc2c(c1)[C@H]1[C@H](CCN1Cc1ccccc1F)[C@@H](CO)N2
[25]
  AC50: 2.37 µM (active)
[26]
  AC50: 2.78 µM (active)
[27]
  AC50: 5.85 µM (active)
[28]
  AC50: 2.39 µM (active)
[29]
  AC50: 71.5 µM (active)

## COc1ccc(C(=O)n2nc(-c3ccco3)nc2N)cc1OC
[16]
  IC50: 2.23 µM (active)

Reference: ChEMBL document CHEMBL1201862, “PubChem BioAssay data set” (2004)
